Laboratory results from patent publication US6617355B1, “Treating asthma by preventing and/or accomodating S-nitrosothiol breakdown” (The University of Virginia Patent Foundation, priority 1997, dated 2003).

Legend:
[1] = system: patient with severe asthma; assay: Treatment of patients with severe asthma or respiratory failure (Examples I-IX); format: in vivo, human
Method: A child with severe asthma developing symptoms of dyspnea, tachypnea, wheezing and cough is administered a 50 mM solution of L-gamma-glutamyl-(o-carboxy)phenylhydrazide as an aerosol via inhalation at a dosage of 0.01 ml/kg.
A person with severe asthma with symptoms of dyspnea on exertion, cough and prolonged expiration is administered a 10 mM solution of bathocuproine disulfonate via inhalation as an aerosol at a dose of 0.01 ml/kg.
A person with severe asthma with chronic symptoms of night-time cough, dyspnea and wheezing is maintained on inhalations of an aerosol of a 10 mM solution of each of S-nitrosoglutathione and aurothioglucose, at a dosage of 0.01 ml/kg.
A child with severe asthma and impending respiratory failure with symptoms of wheezing, cough and cyanosis is given terbutaline (5 μg/kg/min) by continuous IV-infusion. […] The terbutaline is replaced with an equimolar amount of terbutaline substituted with S-nitrosothiol group.
A person has respiratory failure with symptoms of wheezing, cough and cyanosis.
A person with respiratory failure with symptoms as described in Example V is given inhalation of a 10 mmol solution of S-nitroso-D-cysteine, 0.01 ml/kg.
A severe asthmatic with chronic dyspnea is given 30 mg daily prednisone.
A severe asthmatic is treated with inhalation of 1 mg allopurinol.
A severe asthmatic is treated with inhalation of a 10 mM solution of each of S-nitrosomethylmercaptan and ethacrynic acid, at a dosage of 0.01 ml/kg.

[2] = system: Guinea-pig tracheal rings; assay: Relaxation of methacholine-contracted guinea-pig tracheal rings by S-nitrosoglutathione pre-incubated with or without lung fractions; format: cell-based; conditions: n=7
Method: Guinea-pig tracheal and lung parenchymal tissue were separately homogenized in 1 mM ethylenediaminetetraacetic acid, 50 mM TRIS HC1 buffer, pH 7.4, 10 mg/liter soybean trypsin inhibitor, 10 mg/liter pepstatin, 10 mg/liter chymostatin and 100 mg/liter phenylmethylsulfonyl fluoride at 4° C. and underwent centrifugation (5,000 g; 5 min) and filtration. The supernatant was loaded onto a DEAE cellulose column and eluted with a linear gradient of 0-250 mM NaCl. The S-nitrosoglutathione degrading activity was assayed as NO evolution. The results are depicted in FIG. 1 (fractions causing a net loss of NO are represented by diamonds).
Guinea-pig tracheal rings were suspended in Krebs-Henseleit buffer (pH 7.4, 37 degrees C., equilibrated with 95% oxygen/5% carbon dioxide) and equilibrated under one gram tension. Smooth muscle contraction was monitored using a force transducer. After contraction with 5 μM methacholine, rings were exposed to S-nitrosoglutathione which had been incubated (30 minutes, pH 7.4, 25 degrees C.) (a) in phosphate buffered saline alone, (b) with guinea-pig lung protein fractions having S-nitroglutathione breakdown activity isolated as described in Background Example 2, and (c) with active lung fractions and 100 μM aurothioglucose. […]

[3] = system: patients with mild or moderate asthma; assay: Treatment of patients with mild or moderate asthma (Examples X-XI); format: in vivo, human
Method: A child wakes up every night coughing and coughs on exertion. The patient is given inhalations of 0.01 ml/kg of a 10 mM solution of S-nitroso-D-cysteine.

## Oc1ncnc2[nH]ncc12 [allopurinol]
[1]; Example VIII: severe asthmatic, inhalation of 1 mg
  asthma symptoms: Symptoms improve

## N[C@@H](CCC(=O)N[C@@H](CSN=O)C(=O)NCC(=O)O)C(=O)O [S-nitrosoglutathione]
[2]; rings contracted with 5 μM methacholine, S-nitrosoglutathione incubated 30 minutes, pH 7.4, 25 degrees C with guinea-pig lung protein fractions, p<0.005 for all concentrations >500 nM
  relaxation of tracheal rings by S-nitrosoglutathione after incubation with active lung fractions: relaxation was nearly completely inhibited

## OC[C@H]1O[C@H]([S-])[C@H](O)[C@@H](O)[C@@H]1O.[Au+] [aurothioglucose]
[2]; S-nitrosoglutathione incubated with active lung fractions and 100 μM aurothioglucose, p<0.001 at 50 μM
  restoration of S-nitrosoglutathione relaxation by inhibitor of breakdown: partially restored

## Cc1cc(-c2ccc(S(=O)(=O)O)cc2)c2ccc3c(-c4ccc(S(=O)(=O)O)cc4)cc(C)nc3c2n1 [bathocuproine disulfonate]
[1]; Example II: person, severe asthma, 10 mM solution via inhalation as aerosol, 0.01 ml/kg
  asthma symptoms: symptoms improve

## NC(CCC(=O)NNc1ccccc1C(=O)O)C(=O)O [L-gamma-glutamyl-(o-carboxy)phenylhydrazide]
[1]; Example I: child, severe asthma, 50 mM solution as aerosol via inhalation, 0.01 ml/kg
  asthma symptoms: symptoms improve

## CC(C)(C)NCC(O)c1cc(O)cc(O)c1 (stereo not shown) [terbutaline]
[1]; Example IV: child, severe asthma, impending respiratory failure, continuous IV-infusion 5 μg/kg/min or equimolar amount
  asthma symptoms: No improvement occurs

## N[C@H](CSN=O)C(=O)O [S-nitroso-D-cysteine]
[3]; Example X: child, night cough and cough on exertion, inhalations of 0.01 ml/kg of 10 mM solution
  asthma symptoms: sleeps through the night and is able to participate in sports without shortness of breath
[1]; Example VI: person, respiratory failure, inhalation of 10 mmol solution, 0.01 ml/kg
  asthma symptoms: Improvement occurs

## N[C@H](C(=O)O)[C@@H]1CC(Cl)=NO1 [acivicin]
[3]; Example XI: person, wheezing and coughing three times a year, nebulized 0.01 mmol/kg
  asthma symptoms: becomes asymptomatic
[1]; Example V: person, respiratory failure, parenteral methylprednisone 4 mg/kg and terbutaline 5 μg/kg/min, then nebulized acivicin 0.01 mmol/kg
  asthma symptoms: symptoms improve
